Active and inactive are the calls of the source. No cut-off for these calls is given here.
Tests used:
Bacteria [1] = assay: Inhibition of recombinant metallo-beta-lactamase ImiS (unknown origin) expressed in Escherichia coli BL21 (DE3) cells using meropenem as substrate at 20 uM by spectrometric analysis relative to control
Bacteria [2] = assay: Inhibition of recombinant serine beta lactamase KPC-2 (unknown origin) expressed in Escherichia coli BL21 (DE3) cells using meropenem as substrate at 20 uM by spectrometric analysis relative to control
Bacteria [3] = assay: Inhibition of recombinant serine beta lactamase OXA-48 (unknown origin) expressed in Escherichia coli BL21 (DE3) cells using meropenem as substrate at 20 uM by spectrometric analysis relative to control
[4] = biological target: T1, Metallo-beta-lactamase type 2 (Bacteria, UniProt C7C422); assay: Inhibition of recombinant NDM-1 (unknown origin) expressed in Escherichia coli BL21 (DE3) cells using meropenem as substrate by spectrometric analysis
T1 sequence (C7C422 whole entry): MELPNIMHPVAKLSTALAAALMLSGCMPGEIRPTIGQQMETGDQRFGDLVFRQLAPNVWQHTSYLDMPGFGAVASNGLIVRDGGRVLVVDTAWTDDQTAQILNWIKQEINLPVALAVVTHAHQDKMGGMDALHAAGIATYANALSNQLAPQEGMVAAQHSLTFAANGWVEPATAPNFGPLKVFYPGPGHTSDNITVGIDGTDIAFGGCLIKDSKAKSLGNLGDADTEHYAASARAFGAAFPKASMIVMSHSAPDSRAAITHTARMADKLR

[5] = Inhibition of recombinant serine beta lactamase KPC-2 (unknown origin) expressed in Escherichia coli BL21 (DE3) cells using meropenem as substrate by spectrometric analysis; design: species or system Bacteria
[6] = biological target: T1, Metallo-beta-lactamase type 2; assay: Non-competitive inhibition of recombinant NDM-1 (unknown origin) expressed in Escherichia coli BL21 (DE3) cells using meropenem as substrate assessed as inhibition constant by Lineweaver-Burk plot analysis
Bacteria [7] = assay: Inhibition of recombinant IMP-1 (unknown origin) expressed in Escherichia coli BL21 (DE3) cells assessed as reduction in residual activity incubated for 20 hrs; conditions: dose 0.25-5 µM
Bacteria [8] = assay: Inhibition of recombinant serine beta lactamase KPC-2 (unknown origin) expressed in Escherichia coli BL21 (DE3) cells assessed as reduction in residual activity incubated for 360 min; conditions: dose 0.25-5 µM
Bacteria [9] = assay: Inhibition of recombinant IMP-1 (unknown origin) expressed in Escherichia coli BL21 (DE3) cells assessed as reduction in residual activity at 0.25 to 5 uM; conditions: dose 0.25-5 µM, time 20.0 hrs, TDE = time-dependent effect
Bacteria [10] = assay: Inhibition of recombinant serine beta lactamase OXA-48 (unknown origin) expressed in Escherichia coli BL21 (DE3) cells assessed as reduction in residual activity at 0.3 to 5 uM; conditions: dose 0.3-5 µM, time 120.0 min, TDE = time-dependent effect
[11] = biological target: Metallo-beta-lactamase type 2 (Bacteria) (UniProt C7C422); assay: Inhibition of recombinant NDM-1 (unknown origin) expressed in Escherichia coli BL21 (DE3) cells assessed as maximal inhibition at 5 uM incubated for 5 hrs
Chain of Metallo-beta-lactamase type 2 (Bacteria) (C7C422 whole entry): as above

Bacteria [12] = assay: Inhibition of recombinant IMP-1 (unknown origin) expressed in Escherichia coli BL21 (DE3) cells assessed as maximal inhibition at 5 uM incubated for 10 hrs
Bacteria [13] = assay: Inhibition of recombinant serine beta lactamase OXA-48 (unknown origin) expressed in Escherichia coli BL21 (DE3) cells assessed as maximal inhibition at 5 uM measured after 0.5 hrs
[14] = biological target: Metallo-beta-lactamase type 2 (Bacteria) (UniProt C7C422); assay: Inhibition of recombinant NDM-1 (unknown origin) expressed in Escherichia coli BL21 (DE3) cells using meropenem as substrate assessed as residual activity at 20 uM relative to control
Bacteria [15] = assay: Inhibition of recombinant serine beta lactamase OXA-48 (unknown origin) expressed in Escherichia coli BL21 (DE3) cells using cefazolin as substrate assessed as residual activity at 20 uM relative to control
Bacteria [16] = assay: Irreversible inhibition of recombinant metallo-beta-lactamase IMP-1 (unknown origin) expressed in Escherichia coli BL21 (DE3) cells using cefazolin as substrate assessed as reduction in residual activity at 5 uM preincubated for 6 hrs followed by dialysis and measured after 24 hrs
Bacteria [17] = assay: Irreversible inhibition of recombinant serine beta lactamase KPC-2 (unknown origin) expressed in Escherichia coli BL21 (DE3) cells using cefazolin as substrate assessed as reduction in residual activity at 5 uM preincubated for 6 hrs followed by dialysis and measured after 24 hrs
[18] = biological target: Metallo-beta-lactamase type 2 (Bacteria) (UniProt C7C422); assay: (§1) Destabilization of recombinant NDM-1 (unknown origin) expressed in Escherichia coli BL21 (DE3) cells assessed as thermal stabilization by measuring melting temperature at 50 uM incubated under 25 to 80 degreeC by SYPRO orange dye based thermal shift assay (reference value: 52.6 degreeC)
Bacteria [19] = assay: as §1, with “serine beta lactamase KPC-2” for “NDM-1”, “55.4” for “52.6”
Escherichia coli [20] = assay: Synergistic antibacterial activity against Escherichia coli BL21 (DE3) harboring NDM-1 assessed as meropenem MIC at 64 microg/ml measured after 16 hrs by CLSI protocol based broth microdilution method (reference value: 256 microg/ml); format: functional; conditions: dose 64 µg/ml
Escherichia coli [21] = assay: Synergistic antibacterial activity against Escherichia coli BL21 (DE3) harboring metallo-beta-lactamase IMP-1 assessed as meropenem MIC at 64 microg/ml measured after 16 hrs by CLSI protocol based broth microdilution method (reference value: 64 microg/ml); format: functional; conditions: dose 64 µg/ml
Escherichia coli [22] = assay: Synergistic antibacterial activity against Escherichia coli BL21 (DE3) harboring serine beta lactamase OXA-48 assessed as meropenem MIC at 64 microg/ml measured after 16 hrs by CLSI protocol based broth microdilution method (reference value: 1 microg/ml); format: functional; conditions: dose 64 µg/ml
Escherichia coli [23] = assay: Synergistic antibacterial activity against Escherichia coli assessed as meropenem MIC at 64 microg/ml measured after 16 hrs by CLSI protocol based broth microdilution method (reference value: 64 microg/ml); format: functional; conditions: dose 64 µg/ml
Escherichia coli [24] = assay: Synergistic antibacterial activity against Escherichia coli clinical isolate 08 assessed as fold decrease in meropenem MIC at 64 microg/ml measured after 16 hrs by CLSI protocol based broth microdilution method; format: functional; conditions: dose 64 µg/ml
Escherichia coli [25] = assay: Synergistic antibacterial activity against Escherichia coli clinical isolate 24 assessed as fold decrease in meropenem MIC at 64 microg/ml measured after 16 hrs by CLSI protocol based broth microdilution method; format: functional; conditions: dose 64 µg/ml
Escherichia coli [26] = assay: Synergistic antibacterial activity against Escherichia coli BL21 (DE3) harboring NDM-1 assessed as decrease in bacterial colony at 128 microg/ml incubated for 12 hrs in presence of meropenem by imaging analysis; format: functional, organism-based; conditions: dose 128.0 µg/ml
Escherichia coli [27] = assay: Antibacterial activity against Escherichia coli BL21 (DE3) harboring serine beta lactamase KPC-2 assessed as inhibition of bacterial growth upto 512 microg/ml by microdilution checkerboard assay; format: functional, organism-based; conditions: dose <= 512.0 µg/ml
Escherichia coli [28] = assay: Synergistic antibacterial activity against Escherichia coli BL21 (DE3) harboring serine beta lactamase OXA-48 assessed as reduction in meropenem MIC upto 256 microg/ml in presence of meropenem by microdilution checkerboard assay; format: functional, organism-based; conditions: dose <= 256.0 µg/ml
Escherichia coli [29] = assay: Synergistic antibacterial activity against Escherichia coli harboring serine beta-lactamase OXA-48 infected in Kunming mouse model assessed as reduction in bacterial load in spleen at 20 mg/kg, ip co-administered with 1 mg/kg of meropenem; format: functional, organism-based
Escherichia coli [30] = assay: Antibacterial activity against Escherichia coli harboring NDM-1 infected in Kunming mouse model assessed as reduction in bacterial load in liver at 20 mg/kg, ip; format: functional, organism-based
[31] = Cytotoxicity against mouse L929 cells assessed as cell viability upto 200 uM incubated for 48 hrs by CCK8 assay relative to control; format: toxicity, cell-based; conditions: read-out: Activity

## O=C(CCCc1ccccc1)NOC(=O)OCc1ccccc1
Bacteria [1]
  inhibition: < 42%
Bacteria [2]
  inhibition: > 90%
Bacteria [3]
  inhibition: > 90%
[4]
  IC50: 640 nM
[5]
  IC50: 570 nM
[6]
  Ki: 2500 nM
Bacteria [7]
  inhibition: Dose-Dependent Effect
Bacteria [8]
  inhibition: Dose-Dependent Effect
Bacteria [9]
  inhibition: Tde
Bacteria [10]
  inhibition: Tde
[11]
  inhibition: Active
Bacteria [12]
  inhibition: Active
Bacteria [13]
  inhibition: Active
[14]
  Activity: < 10%
Bacteria [15]
  Activity: < 10%
Bacteria [16]
  inhibition: Active
Bacteria [17]
  inhibition: Active
[18]
  Tm: 49.8 °C
Bacteria [19]
  Tm: 51.4 °C
Escherichia coli [20]
  MIC: 32 µg/mL
Escherichia coli [21]
  MIC: 16 µg/mL
Escherichia coli [22]
  MIC: 0.5 µg/mL
Escherichia coli [23]
  MIC: 64 µg/mL
Escherichia coli [24]
  fold change (FC): 2
Escherichia coli [25]
  fold change (FC): 2
Escherichia coli [26]
  Activity: Active
Escherichia coli [27]
  Activity: inactive
Escherichia coli [28]
  Activity: Active
Escherichia coli [29]
  Activity: Active
Escherichia coli [30]
  Activity: inactive
[31]
  viability at 48 h, up to 200 µM: > 80%

From ChEMBL document CHEMBL5518172, “Discovery of hydroxamate as a promising scaffold dually inhibiting metallo- and serine-β-lactamases” (Eur J Med Chem, 2024)
